Literature values, collected in US20060159689A1, “Combinations of tumor-associated antigens in diagnostics for various types of cancers” (priority 2004, published 2006).

System: VEGF-A
Settings: colorectal, lung, breast, ovarian carcinoma and other cancers

VEGF-A, sequence (P15692 207-311 limits assumed): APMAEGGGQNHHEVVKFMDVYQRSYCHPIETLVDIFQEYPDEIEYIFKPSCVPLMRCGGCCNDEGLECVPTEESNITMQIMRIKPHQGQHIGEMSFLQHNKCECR

## bevacizumab
  effect on tumor progression and metastatic disease: control of tumor progression and metastatic disease
